For this experiment, the target named is T1, Gag-Pol polyprotein [588-1027]/[588-1147] (Human immunodeficiency virus 1, UniProt P04585).
T1 construct: 588-1027; 588-1147
Put plainly: HIV-1 RT Assay.

Molecules are shown by their SMILES. Bounds are passed on as bounds.

One may read the IC50 as the concentration that gives 50% inhibition. Low values mean higher potency, high ones lower potency. The compound `COC(=O)c1cc(C(=CCCCC(=O)OC(C)C)c2cc(Cl)c(OC)c(C(=O)OC)c2)cc(Cl)c1OC` [Alkenyldiarylmethane (ADAM) 25a] showed an IC50 (pH 7.9) of over 100 µM.
Same read-out and setting: then `COC(=O)c1cc(C(=CCCCc2ccccc2)c2cc(Cl)c(OC)c(C(=O)OC)c2)cc(Cl)c1OC` [1,1-Bis[3-chloro-4-methoxy-5-(methoxycarbonyl)phenyl]-5-phenyl-1-pentene], with over 100 µM.
`COC(=O)c1cc(C(=CCCCC(=O)N2CCCCC2)c2cc(Cl)c(OC)c(C(=O)OC)c2)cc(Cl)c1OC` [6,6-Bis(3-chloro-4-methoxy-5-methoxycarbonylphenyl)-1-piperidylhex-5-en-1-one]: the half-maximal inhibitory concentration (IC50) was over 100 µM.
Still for that read-out and setting: then `CCNC(=O)NCCC=C(c1cc(Cl)c(OC)c(C(=O)OC)c1)c1cc(Cl)c(OC)c(C(=O)OC)c1` [methyl 3-chloro-5-{1-[3-chloro-4-methoxy-5-(methoxycarbonyl)phenyl]-4-[(ethylcarbamoyl)amino]but-1-en-1-yl}-2-methoxybenzoate], with over 100 µM.
`COC(=O)c1cc(C(=CCCCc2ccccc2)c2cc(Br)c(OC)c(C(=O)OC)c2)cc(Br)c1OC` [1,1-Bis[3-bromo-4-methoxy-5-(methoxycarbonyl)phenyl]-5-phenyl-1-pentene]: the IC50 (pH 7.9) was over 100 µM.
Compound `COC(=O)c1cc(C(=CCCCC(=O)OCC[Si](C)(C)C)c2cc(C)c(OC)c(C(=O)OC)c2)cc(C)c1OC` [methyl 2-methoxy-5-{1-[4-methoxy-3-(methoxycarbonyl)-5-methylphenyl]-6-oxo-6-[2-(trimethylsilyl)ethoxy]hex-1-en-1-yl}-3-methylbenzoate] returned an IC50 of over 100 µM.
`COC(=O)c1cc(C(=CCCNC(C)=O)c2cc(Cl)c(OC)c(C(=O)OC)c2)cc(Cl)c1OC` [Methyl 5-{4-(Acetylamino)-1-[3-chloro-4-methoxy-5-(methoxycarbonyl)phenyl]but-1-enyl}-3-chloro-2-methoxybenzoate] showed an IC50 of over 100 µM.
On the same count and under the same terms, then `CNC(=S)NCCC=C(c1cc(Cl)c(OC)c(C(=O)OC)c1)c1cc(Cl)c(OC)c(C(=O)OC)c1` [methyl 3-chloro-5-{1-[3-chloro-4-methoxy-5-(methoxycarbonyl)phenyl]-4-[(methylcarbamothioyl)amino]but-1-en-1-yl}-2-methoxybenzoate], with over 100 µM.
On to `COC(=O)CCCC=C(c1cc(C(=O)OC)c(OC)c(C(F)(F)F)c1)c1cc(C(=O)OC)c(OC)c(C(F)(F)F)c1` [Alkenyldiarylmethane (ADAM) 18a], for which, for the setting “pH 7.9”, the half-inhibitory concentration (IC50) was over 200 µM.
Compound `COC(=O)c1cc(C(=CCCCC(OC)OC)c2cc(Cl)c(OC)c(C(=O)OC)c2)cc(Cl)c1OC` [Alkenyldiarylmethane (ADAM) 38a] gave an IC50 of over 100 µM.
